Patent US9200046B2, “Reporter system for high throughput screening of compounds and uses thereof” (priority 2011, dated 2015)
Entries after “also recorded” stand apart in the source; their conditions may differ. Where two headings read alike, the source gives them in different places.

How the values were obtained:
[1] = system: Neh2-luciferase fusion protein in SH-SY5Y cells; format: cell-based, human
Protocol: Cells were plated at the density of 25,000 cell per well using a WellMate multichannel dispenser from Matrix (Thermo Fisher Scientific) and grown overnight on DMEM/F12+GlutaMAX (100 μl per well). Then the inhibitor was added, and the plates were incubated for a fixed time interval; the medium was removed, cells lysed in 20 μL (out of which 4 μL were taken for protein measurement), then BrightGlo™ reagent (Promega) was added to the wells and luciferase activity measured on a luminometer Lmax11384 (Molecular Devices). The reporter activation was normalized to the background luminescence divided by protein concentration. Kinetics of reporter activation were measured by adding varied fixed concentrations of an inhibitor at different time points followed by simultaneous cell lysis, protein determination, and luciferase activity measurement in the whole 96-well plate; this assay format minimizes experimental error originating from the well-known instability of luciferase reagent.

Nrf2-Keap1 complex = Nrf2-Keap1 complex (Homo sapiens, UniProt Q14145); assay: cell-based; format: cell-based; settings: for activation at 16 µM / activation at 32 µM: 3 h; for activation at 16 µM: read-out: Activation 100 nL; for activation at 32 µM: read-out: Activation 200 nL; for 100 nL (luminescence) / 200 nL (luminescence): Table 2, screen run at 16 and 32 μM, 3 hr; for 100 nL (luminescence): 100 nL compound; for 200 nL (luminescence): 200 nL compound
astrocytes = assay: Intracellular GSH levels in astrocytes; format: cell-based, rat
FLAG-Keap1 = molecular target: T1, FLAG-Keap1 (Homo sapiens, UniProt Q14145); format: cell-based; settings: 200 μM competing compound, HEK293 cells, then 10 μM STCA 30 min
T1 construct: expressed in transfected cells; host or cells: HEK293 (transient expression)
Protocol: FIG. 12. Supporting to FIG. 5. […] A: structural formulas of the compounds used; B: competition with Keap1 labeling. HEK293 cells transiently expressing FLAG-Keap1 were incubated with 200 μM competing compounds (sulforaphane, fisetin, quercetin, gedunin, TBHQ, ciclopirox, geldanamycin) and then further incubated with 10 μM sulfoxythiocarbate-alkyne (STCA) for 30 min at 37° C. FLAG-Keap1 was immunoprecipitated from cell lysates, subjected to click reaction with biotin azide on beads, and eluted with SDS-loading buffer. […] All values are presented as mean±SEM.
Keap1 labeling experiments were performed as described previously (AHN et al., Proc. Natl. […]. USA., 107: 9590-9595 (2010)) with following modifications. HEK293 cells transiently expressing FLAG-Keap1 were incubated with 200 μM competing compounds (sulforaphane, fisetin, quercetin, gedunin, TBHQ, ciclopirox, geldanamycin) in serum-free DMEM for 1 h. After washing with PBS, cells were further incubated with 10 μM sulfoxythiocarbate-alkyne (STCA) for 30 min at 37° C. FLAG-Keap1 was immunoprecipitated from cell lysates, subjected to click reaction with biotin azide on beads, and eluted with SDS-loading buffer. Eluted samples were immunoblotted with Streptavidin-HRP (Pierce) and anti-FLAG antibodies (Sigma).

Immature neurons [2] = assay: Neuronal viability of isolated immature neurons treated with compounds; settings: 24 hours
primary immature neurons = assay: Astrocyte-dependent neuroprotection in astrocyte-neuron coculture with HCA; format: cell-based, rat; settings: astrocytes pretreated 24 hr, neurons plated with HCA
ARE-luc reporter = ARE-luc reporter time-course; format: cell-based, human
Protocol: Human neuroblastoma SH-SY5Y cells were transfected with 1 mg of pcDNA3-Neh2LUC10, pcDNA3-ODDLUC8, pcDNA3-LUC3, and ARE-LUC/pcDNA3 (5:1) by using Lipofectamine—2000 (Invitrogen). Transfected cells were grown in the presence of 500 mg/ml Geneticin (GIBCO-Invitrogen) on DMEM/F12+ GlitaMAX (Dulbecco's modified Eagle medium Nutrient Mixture F-12 (Ham)(1:1) 1×, GIBCO 10565) medium.

Immature neurons [3] = system: Immature neurons

Chain of Nrf2-Keap1 complex (Q14145 whole entry, one chain of several): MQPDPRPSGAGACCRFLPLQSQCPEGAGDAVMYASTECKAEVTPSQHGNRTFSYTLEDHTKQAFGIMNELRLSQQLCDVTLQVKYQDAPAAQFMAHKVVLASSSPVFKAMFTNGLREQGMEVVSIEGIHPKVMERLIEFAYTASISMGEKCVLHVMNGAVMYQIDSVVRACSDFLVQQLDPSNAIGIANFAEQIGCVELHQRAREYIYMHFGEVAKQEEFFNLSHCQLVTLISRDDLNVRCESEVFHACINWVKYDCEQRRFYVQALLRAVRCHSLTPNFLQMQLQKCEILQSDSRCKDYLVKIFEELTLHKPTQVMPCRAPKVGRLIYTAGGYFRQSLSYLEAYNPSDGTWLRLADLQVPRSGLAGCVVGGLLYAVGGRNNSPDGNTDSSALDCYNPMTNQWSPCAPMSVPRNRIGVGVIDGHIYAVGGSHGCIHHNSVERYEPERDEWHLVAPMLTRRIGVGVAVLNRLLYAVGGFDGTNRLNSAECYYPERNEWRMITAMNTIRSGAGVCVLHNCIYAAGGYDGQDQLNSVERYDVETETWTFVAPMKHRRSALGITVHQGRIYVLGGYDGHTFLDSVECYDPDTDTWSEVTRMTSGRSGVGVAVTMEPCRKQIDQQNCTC
T1 sequence (Q14145 whole entry): as the sequence (Q14145 whole entry, one chain of several) above

SMILES | type of reporter activation by time-course [1] | activation at 16 µM (Nrf2-Keap1 complex) [%] | activation at 32 µM (Nrf2-Keap1 complex) [%] | 100 nL (luminescence) (Nrf2-Keap1 complex) | 200 nL (luminescence) (Nrf2-Keap1 complex) | GSH in astrocytes (astrocytes) | competition with Keap1 labeling by STCA (FLAG-Keap1) | toxicity in isolated neurons (Immature neurons [2]) | astrocyte-dependent neuroprotection (primary immature neurons) | activation of Neh2-luc reporter ([1]; positive control, FIG. 1B) | delay of ARE-luc reporter response (ARE-luc reporter) [h] | toxicity in isolated neurons (Immature neurons [3]) | GSH in astrocytes (astrocytes; 24 hr, 10 μM NDGA, 24 μM gedunin, 20 μM fisetin)
O=c1c(O)c(-c2ccc(O)c(O)c2)oc2cc(O)ccc12 [FISETIN] | activation via a switch or receptor | 224 | 38 | 3360 | 1320 | does not show the same level of enhancement | very modest competition; also recorded: poorly compete with Keap1 labeling | did not induce toxicity in isolated neurons | induced significant neuroprotection | – | – | – | –
CC(C)(C)c1cc(O)ccc1O [TBHQ, tert-butylhydroquinone, reference compound] | immediate activation but gradual stabilization over time | – | – | – | – | – | very modest competition; also recorded: competes very poorly | – | – | more than 10 fold | 3 | neurotoxic effects | –
CC(Cc1ccc(O)c(O)c1)C(C)Cc1ccc(O)c(O)c1 (stereo not shown) [NDGA, nordihydroguaiaretic acid] | activation via a switch or receptor | – | – | – | – | – | poorly compete with Keap1 labeling | – | induced significant neuroprotection | – | – | did not induce toxicity in isolated neurons | clearly show a boost in GSH
CC(=O)O[C@@H]1C[C@H]2C(C)(C)C(=O)C=C[C@]2(C)[C@H]2CC[C@@]3(C)[C@H](c4ccoc4)OC(=O)[C@H]4O[C@]43[C@@]21C [GEDUNIN] | immediate activation but gradual stabilization over time; also recorded: immediate effect | 222 | 184 | 4812 | 3708 | clearly show a boost in GSH | very modest competition; also recorded: poorly compete with Keap1 labeling | did not induce toxicity in isolated neurons | induced significant neuroprotection | – | – | – | –
